Laboratory results as given in patent US20060084694A1, “Ligand-dependant activation of Nur77 and uses thereof” (priority 2004, published 2006).
Entries after “also recorded” stand apart in the source; their conditions may differ.

What was measured:
TRAIL mRNA = TRAIL mRNA in Panc-28 cells (RT-PCR); type: cell-based; conditions: Panc-28 cells (FIG. 6B)
Protocol: cDNA was prepared from the Panc-28 cell line using a combination of oligodeoxythymidylic acid (Oligo d(T)16), and dNTP mix (Applied Biosystems) and Superscript II (Invitrogen). Each PCR was carried out in triplicate in a 20-μl volume using Sybr Green Mastermix (Applied Biosystems) for 15 min at 95° C. for initial denaturing, followed by 40 cycles of 95° C. for 30 s and 60° C. for 1 min in the ABI Prism 7700 Sequence Detection System. The ABI Dissociation Curves software was used following a brief thermal protocol (95° C. 15 s and 60° C. 20 s, followed by a slow ramp to 95° C.) to control for multiple species in each PCR amplification. Values for each gene were normalized to expression levels of TBP. The sequences of the primers used for RT-PCR were as follows: TRAIL forward, 5′-CGTGTACTTTACCAACGAGCTGA-3′, reverse, 5′-ACGGAGTTGCCACTTGACTTG-3′; and TBP forward, 5′-TGCACAGGAGCCAAGAGTGAA-3′, reverse, 5′-CACATCACAGCTCCCCACCA-3′.

[1] = biological target: T1, GAL4-Nur77 (full length) chimera (Homo sapiens, UniProt P22736); assay: GAL4-Nur77 (full length)/pGAL4 luciferase transactivation in Panc-28 cells; type: cell-based; conditions: for luciferase activity, GAL4-Nur77 (full length)/pGAL4: Panc-28 cells, 10 or 20 μM (FIG. 1B); for Nur77 activation, structure dependence (isomers and ring-substituted analogs): FIG. 1D, analogs data not shown
T1 construct: Panc-28 cells transfected with a GAL4-Nur77 (full length) chimera; expressed in transfected cells; host or cells: Panc-28
T1 sequence (P22736 whole entry, change not shown, the tested form may be a part): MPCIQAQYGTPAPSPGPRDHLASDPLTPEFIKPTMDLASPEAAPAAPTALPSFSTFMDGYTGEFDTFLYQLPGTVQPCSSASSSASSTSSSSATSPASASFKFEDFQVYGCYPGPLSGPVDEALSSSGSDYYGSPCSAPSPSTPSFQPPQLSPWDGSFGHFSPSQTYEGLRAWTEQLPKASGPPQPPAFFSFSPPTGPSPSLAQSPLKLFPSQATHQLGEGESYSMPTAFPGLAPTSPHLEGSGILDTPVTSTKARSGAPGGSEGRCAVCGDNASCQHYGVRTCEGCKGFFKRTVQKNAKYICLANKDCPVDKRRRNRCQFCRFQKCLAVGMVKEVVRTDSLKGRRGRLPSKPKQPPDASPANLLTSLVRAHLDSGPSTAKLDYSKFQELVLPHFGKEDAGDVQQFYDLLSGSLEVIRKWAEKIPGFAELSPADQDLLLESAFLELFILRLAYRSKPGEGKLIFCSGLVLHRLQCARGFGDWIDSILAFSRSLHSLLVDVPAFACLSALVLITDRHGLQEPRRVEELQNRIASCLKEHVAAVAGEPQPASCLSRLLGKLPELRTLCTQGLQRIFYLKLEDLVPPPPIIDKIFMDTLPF
From the text: Structure-dependent activation of Nur77 by a series of eleven C-substituted DIMs was investigated in Panc-28 cells transfected with a GAL4-Nur77 (full length) chimera and a reporter construct containing five GAL4 response elements linked to a luciferase reporter gene (pGAL4).
(§1) Transfection assays were essentially carried out as previously described using Lipofectamine Plus reagent (Invitrogen, Carlsbad, Calif.) and luciferase activities were normalized to β-galactosidase activity. […] Results are expressed as means±SE for at least three replicate determinations for each treatment group.

GAL4-Nur77(E/F) = biological target: T2, GAL4-Nur77(E/F) (Homo sapiens, UniProt P22736); assay: GAL4-Nur77(E/F)/pGAL4 transactivation in Panc-28 cells; type: cell-based; conditions: 5-15 μM (FIG. 2A)
T2 construct: a chimeric GAL4-Nur77(E/F) construct containing only the E/F domain of Nur77; expressed in transfected cells; host or cells: Panc-28
T2 sequence (P22736 360-595 limits assumed): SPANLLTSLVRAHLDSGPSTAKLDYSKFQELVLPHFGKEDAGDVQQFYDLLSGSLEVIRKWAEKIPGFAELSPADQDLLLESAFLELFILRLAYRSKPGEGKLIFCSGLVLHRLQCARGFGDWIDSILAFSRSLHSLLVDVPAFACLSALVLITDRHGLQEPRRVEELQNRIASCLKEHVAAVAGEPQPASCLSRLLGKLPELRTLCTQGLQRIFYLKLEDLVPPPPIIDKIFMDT
From the text: as §1
(§2) (FIG. 2A). […] The structural specificity of Nur77 antagonists was further investigated using meta-hydroxy (DIM-C-mPhOH) and ortho-hydroxy (DIM-C-oPhOH) analogs. […] Thus, activation of Nur77 by C-DIMs was E/F domain-dependent and Nur77 activation was inhibited by DIM-C-pPhOH; moreover, both activation and inhibition of Nur77-mediated transactivation was dependent on the structure of the C-DIM compounds.

PPARγ = biological target: T3, PPARγ (Homo sapiens, UniProt P37231); conditions: Qin, et al., 2004, Chintharlapalli; cited from earlier work
T3 sequence (P37231 1-505): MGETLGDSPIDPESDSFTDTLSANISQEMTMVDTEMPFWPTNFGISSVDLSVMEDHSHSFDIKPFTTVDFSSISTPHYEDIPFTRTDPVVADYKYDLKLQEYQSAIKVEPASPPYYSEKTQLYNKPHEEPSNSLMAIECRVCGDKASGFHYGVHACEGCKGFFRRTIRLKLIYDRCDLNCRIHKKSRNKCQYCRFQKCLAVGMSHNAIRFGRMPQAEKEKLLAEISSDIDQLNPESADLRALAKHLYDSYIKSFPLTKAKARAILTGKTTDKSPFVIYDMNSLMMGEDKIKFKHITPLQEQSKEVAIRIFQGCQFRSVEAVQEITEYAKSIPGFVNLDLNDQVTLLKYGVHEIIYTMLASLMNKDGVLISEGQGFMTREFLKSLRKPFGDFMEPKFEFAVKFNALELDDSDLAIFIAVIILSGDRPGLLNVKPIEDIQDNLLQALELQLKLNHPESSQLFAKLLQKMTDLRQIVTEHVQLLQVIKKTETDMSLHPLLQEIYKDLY

Nur77 [2] = biological target: T4, Nur77 (Homo sapiens, UniProt P22736); assay: Nur77 subcellular localization and level (immunostaining, Western blot of cytosolic and nuclear extracts); conditions: for Nur77 translocation, Western blot of cytosolic and nuclear extracts: Panc-28, 10 or 20 μM, 12 hr (FIG. 4B); for Nur77 localization by immunostaining: Panc-28 cells, 10 μM, 6 hr (FIG. 4A)
T4 sequence (P22736 whole entry, the tested form may be a part): as the sequence (P22736 whole entry, change not shown, the tested form may be a part) above
Protocol: The different cancer cell lines were cultured under standardized conditions. Panc-28 cells were grown in DMEM:Ham's F-12 media containing 2.5% charcoal stripped fetal bovine serum, and cells were treated with DMSO and different concentrations of test compounds as indicated. […] For all other assays, cytosolic, nuclear fractions, or whole cell lysates were obtained at various time points, analyzed by Western blot analysis, and bands were quantitated as previously described (Qin, et al., 2004; Abdelrahim, et al., 2002). Immunocytochemical analysis was determined using Nur77 antibodies as previously reported (Abdelrahim, et al., 2002).
Sp1 is a nuclear protein and was used as a control to ensure efficient separation of the two extracts and Sp1 was identified only in the nuclear fraction.

GAL4-Nur77 = biological target: T5, GAL4-Nur77 (Homo sapiens, UniProt P22736); assay: Nur77 antagonist assay: cotreatment with Nur77 agonists, GAL4-Nur77/pGAL4 in Panc-28 cells; type: cell-based; conditions: for Nur77 antagonist activity (inhibition of agonist-induced transactivation): Panc-28, cotreatment with Nur77 agonists, 10 or 20 μM (FIG. 2C-2E)
T5 construct: expressed in transfected cells; host or cells: Panc-28
T5 sequence (P22736 whole entry, the tested form may be a part): as the sequence (P22736 whole entry, change not shown, the tested form may be a part) above
From the text: as §1, §2

[3] = biological target: VP-Nur77 (ligand binding domain) / GAL4-coactivator chimeras (Homo sapiens, UniProt P22736); conditions: Panc-28, VP-Nur77
VP-Nur77 (ligand binding domain) / GAL4-coactivator chimeras, sequence (P22736 360-595 limits assumed, change not shown): as the sequence (P22736 360-595 limits assumed) above
Protocol: Panc-28 cells were plated in 12-well plates at 1×10^5 cells/well in DME-F12 media supplemented with 2.5% charcoal-stripped FBS. After growth for 16 hr, various amounts of DNA, i.e. Gal4Luc (0.4 μg), β-gal (0.04 μg), VP-Nur77(E/F) (0.04 μg), pM SRC1 (0.04 μg), pMSRC2 (0.04 μg), pMSRC3 (0.04 μg), pMDRIP205 (0.04 μg) and pMCARM-1 (0.04 μg) were transfected by Lipofectamine (Invitrogen) according to the manufacturer's protocol. After 5 hr of transfection, the transfection mix was replaced with complete media containing either vehicle (DMSO) or the indicated ligand for 20-22 hr. Cells were then lysed with 100 ml of 1X reporter lysis buffer, and 30 μl of cell extract were used for luciferase and β-Gal assays. Lumicount was used to quantitate luciferase and β-Gal activities, and the luciferase activities were normalized to β-Gal activity.
Ligand-induced Nur77-coactivator interactions were determined using a construct (pGAL4) containing 5 GAL4 response elements. Coactivators used in this study include SRC-1, SRC-2 (TIFII), SRC-3 (AIB1), PGC-1, TRAP220 and CARM-1. A GAL4-repressor (SMRT) chimera was also included in the assay.

Panc-28 cell xenografts = assay: Tumor growth in athymic nude mice bearing Panc-28 cell xenografts; type: in vivo, athymic nude mice (BALB/c)
Protocol: Male athymic nude mice (BALB/c, ages 8-12 weeks) were purchased from Harlan (Indianapolis, Ind.). The mice were housed and maintained in laminar flow cabinets under specific pathogen-free conditions. Panc-28 cells were harvested from subconfluent cultures by trypsinization and washed. Panc-28 cells (2×10^6) were injected subcutaneously into each mouse on both flanks using a 30-gauge needle. The tumors were allowed to grow for 11 days until tumors were palpable. Mice were then randomized into two groups of seven mice per group and dosed by oral gavage with either corn oil or DIM-C-pPhOCH3 every second day. The volume of corn oil was 75 μl, and the dose of DIM-C-pPhOCH3 was 25 mg/kg/day. The mice were weighed, and tumor areas were also measured ever other day. Final body and tumor weights were determined at the end of the dosing regiment; and selected tissues were further examined by routine H & E staining and immunohistochemical analysis for apoptosis using the TUNEL assay.

Panc-28 cells [4] = assay: Annexin V-Alexa-488 / propidium iodide apoptosis assay in Panc-28 cells; type: cell-based; conditions: for annexin V-stained cells: Panc-28, 10 and 20 μM, 8 and 12 hr (FIG. 5C)
Protocol: Detection of phosphatidylserine on the outside of the cell membrane, a unique and early marker for apoptosis, was performed using a commercial kit (Vybrant Apoptosis Assay Kit #2; Molecular Probes, Eugene, Oreg.). […] Binding of annexin V-Alexa-488 conjugate and propidium iodide (PI) was performed according to the manufacturer's instructions. After binding and washing, cells were observed under phase contrast and epifluorescent illumination using a 495-nm excitation filter and a 520-nm absorption filter for annexin V-Alexa 488 and a 546-nm excitation filter and a 590-nm absorption filter for PI. Healthy cells were unstained by either dye; cells in early stages of apoptosis were stained only by annexin V, while dead cells were stained by annexin V and PI. The assay was repeated on three separate Panc-28 cell preparations.

TRAIL = TRAIL protein expression in Panc-28 cells (Western blot); type: cell-based
From the text: In thymocytes, there is evidence that Nur77-induced apoptosis is linked to transcriptional activation (uang, et al., 1999), and microarray studies in thymocytes undergoing Nur77-dependent apoptosis identified several apoptosis-related genes including fasL and TRAIL (Rajpal, et al., 2003). […] (FIG. 6B). Since TRAIL activates the extrinsic apoptosis pathway and activation of caspase 8, the effect of a caspase 8 inhibitor (Z-IETD-FMK) and the pan-caspase inhibitor (Z-VAD-FMK) was also investigated on induction of PARP cleavage by Nur77 agonists (FIG. 6C).

PARP cleavage = PARP cleavage in Panc-28 cells (Western blot); type: cell-based; conditions: for effect of leptomycin B on PARP cleavage induced by Nur77 agonists: Panc-28, LMB 1 ng/ml cotreatment (FIG. 5E)
Protocol: The different cancer cell lines were cultured under standardized conditions. Panc-28 cells were grown in DMEM:Ham's F-12 media containing 2.5% charcoal stripped fetal bovine serum, and cells were treated with DMSO and different concentrations of test compounds as indicated. For longer term cell survival studies, the media was changed every second day, and values were presented for a 4 day experiment. For all other assays, cytosolic, nuclear fractions, or whole cell lysates were obtained at various time points, analyzed by Western blot analysis, and bands were quantitated as previously described (Qin, et al., 2004; Abdelrahim, et al., 2002). Immunocytochemical analysis was determined using Nur77 antibodies as previously reported (Abdelrahim, et al., 2002).

Panc-28 cells [5] = assay: Cell survival of Panc-28 cells; type: cell-based
Protocol: The different cancer cell lines were cultured under standardized conditions. Panc-28 cells were grown in DMEM:Ham's F-12 media containing 2.5% charcoal stripped fetal bovine serum, and cells were treated with DMSO and different concentrations of test compounds as indicated. For longer term cell survival studies, the media was changed every second day, and values were presented for a 4 day experiment.

Nur77 [6] = biological target: T4, Nur77; assay: Nur response element (NurRE) luciferase transactivation in Panc-28 cells; type: cell-based; set-up: endogenous in cells; host or cells: Panc-28; conditions: 10 or 20 μM (FIG. 1C)
[7] = Panc-28, cotreatment with DIM-C-pPhOH3 or DIM-C-Ph (FIG. 6E)

## c1ccc(C(c2c[nH]c3ccccc23)c2c[nH]c3ccccc23)cc1 [DIM-C-Ph]
TRAIL mRNA
  TRAIL mRNA levels: induced TRAIL mRNA levels
[1]
  luciferase activity, GAL4-Nur77 (full length)/pGAL4: activated luciferase activity
GAL4-Nur77(E/F)
  luciferase activity, GAL4-Nur77(E/F)/pGAL4: induced luciferase activity
PPARγ
  PPARγ activation: PPARγ-inactive
Nur77 [2]
  Nur77 translocation, Western blot of cytosolic and nuclear extracts: translocation from the nucleus is not observed
  Nur77 localization by immunostaining: Nur77 remained in the nucleus

## COc1cccc(C(c2c[nH]c3ccccc23)c2c[nH]c3ccccc23)c1 [DIM-C-mPhOCH3]
[1]
  Nur77 activation, structure dependence (isomers and ring-substituted analogs): Only the para-substituted compound was active

## Oc1cccc(C(c2c[nH]c3ccccc23)c2c[nH]c3ccccc23)c1 [DIM-C-mPhOH]
GAL4-Nur77
  Nur77 antagonist activity (inhibition of agonist-induced transactivation): did not inhibit

## COc1ccccc1C(c1c[nH]c2ccccc12)c1c[nH]c2ccccc12 [DIM-C-oPhOCH3]
[1]
  Nur77 activation, structure dependence (isomers and ring-substituted analogs): Only the para-substituted compound was active

## Oc1ccccc1C(c1c[nH]c2ccccc12)c1c[nH]c2ccccc12 [DIM-C-oPhOH]
GAL4-Nur77
  Nur77 antagonist activity (inhibition of agonist-induced transactivation): did not exhibit Nur77 antagonist activity
GAL4-Nur77; high doses (20 μM) of both Nur77 agonists and DIM-C-oPhOH
  toxicity in cotreated cells: toxic

## FC(F)(F)c1ccc(C(c2c[nH]c3ccccc23)c2c[nH]c3ccccc23)cc1 [DIM-C-pPhCF3]
[1]
  luciferase activity, GAL4-Nur77 (full length)/pGAL4: activated luciferase activity
GAL4-Nur77(E/F)
  luciferase activity, GAL4-Nur77(E/F)/pGAL4: induced luciferase activity
PPARγ
  PPARγ activation: also activates PPARγ
Nur77 [2]
  Nur77 translocation, Western blot of cytosolic and nuclear extracts: translocation from the nucleus is not observed
  Nur77 localization by immunostaining: Nur77 remained in the nucleus
[3]
  transactivation with GAL4-CARM-1: slightly activated

## COc1ccc(C(c2c[nH]c3ccccc23)c2c[nH]c3ccccc23)cc1 [DIM-C-pPhOCH3]
TRAIL mRNA
  TRAIL mRNA levels: induced TRAIL mRNA levels
[1]
  Nur77 activation, structure dependence (isomers and ring-substituted analogs): active
  luciferase activity, GAL4-Nur77 (full length)/pGAL4: activated luciferase activity
Panc-28 cell xenografts; 25 mg/kg/day vs corn oil
  animal weight gain and organ weights: comparable
Panc-28 cell xenografts; 25 mg/kg/day, oral gavage (FIG. 7B)
  tumor weights: parallel decrease in tumor weights
Panc-28 cell xenografts; 25 mg/kg/day, oral gavage every second day (FIG. 7A)
  tumor growth (area): significantly inhibited tumor growth
Panc-28 cell xenografts; treated vs corn oil
  brain regions by H & E staining: did not indicate any differences
Panc-28 cells [4]
  annexin V-stained cells: time- and dose-dependent increase
Panc-28 cells [4]; Panc-28, 6 hr
  PI staining after 6 hr: minimal PI staining
  annexin V-stained cells after 6 hr: significantly increased
Panc-28 cells [4]; Panc-28, 12 hr
  PI staining after 12 hr: PI staining was increased
GAL4-Nur77(E/F)
  luciferase activity, GAL4-Nur77(E/F)/pGAL4: induced luciferase activity
PPARγ
  PPARγ activation: PPARγ-inactive
Nur77 [2]
  Nur77 translocation, Western blot of cytosolic and nuclear extracts: translocation from the nucleus is not observed
  Nur77 localization by immunostaining: Nur77 remained in the nucleus
[3]
  transactivation with GAL4-CARM-1: slightly activated
  transactivation with GAL4-SRC-3: induced transactivation

## Oc1ccc(C(c2c[nH]c3ccccc23)c2c[nH]c3ccccc23)cc1 [DIM-C-pPhOH]
TRAIL; [7]
  inhibition of TRAIL protein expression induced by Nur77 agonists: inhibited induction
TRAIL; Panc-28 cells (FIG. 6A)
  TRAIL protein expression: did not induce TRAIL
[1]
  luciferase activity, GAL4-Nur77 (full length)/pGAL4: inactive; also recorded: did not induce activity
GAL4-Nur77(E/F)
  luciferase activity, GAL4-Nur77(E/F)/pGAL4: no response was observed
PARP cleavage; [7]
  inhibition of PARP cleavage induced by Nur77 agonists: inhibited induction
PARP cleavage; Panc-28 cells (FIG. 5B)
  cleavage of PARP: did not induce this response
Panc-28 cells [5]; Panc-28 (FIG. 5A)
  effect on cell survival: did not affect cell survival
Panc-28 cells [5]; Panc-28, 4 and 6 days
  cell proliferation at longer time points: slightly inhibited cell proliferation
Panc-28 cells [5]; Panc-28, concentrations as high as 20 μM
  induction of cell death: induction of cell death was not observed
Nur77 [6]
  activation of NurRE construct: inactive
GAL4-Nur77
  Nur77 antagonist activity (inhibition of agonist-induced transactivation): antagonizes activation of Nur77 by all three C-DIM compounds

## CC[C@@]1(O)C(=O)OCc2c1cc1n(c2=O)Cc2cc3ccccc3nc2-1 [camptothecin, reference compound]
Panc-28 cells [4]
  annexin V-stained cells: comparable

## CCC(=C/[C@H](C)C/C=C/C(C)=C/[C@@H](C)C(=O)[C@@H](C)[C@H](O)[C@@H](C)C/C(C)=C/C(=O)O)/C=C/[C@@H]1OC(=O)C=C[C@@H]1C [leptomycin B, Leptomycin B]
PARP cleavage; Panc-28, 1 ng/ml (FIG. 5E)
  PARP cleavage, LMB alone: slightly induced PARP cleavage
PARP cleavage
  effect of leptomycin B on PARP cleavage induced by Nur77 agonists: not affected
PARP cleavage; listed as LMB
  effect of leptomycin B on PARP cleavage induced by Nur77 agonists: enhanced PARP cleavage
